According to ChEMBL document CHEMBL1144629, “Synthesis and in vivo antihyperglycemic activity of nature-mimicking furanyl-2-pyranones in STZ-S model” (2007):

Assays:
Format in all cases: functional
Set-up in all cases: scale not given: the % may be the effect or the level left
Rattus norvegicus [1] = assay: Antihyperglycemic activity in STZ-induced diabetic Sprague-Dawley rat assessed as decrease in blood glucose at 100 mg/kg, po after 30 mins relative to control
Rattus norvegicus [2] = assay: Antihyperglycemic activity in STZ-induced diabetic Sprague-Dawley rat assessed as decrease in blood glucose at 100 mg/kg, po after 60 mins relative to control
Rattus norvegicus [3] = assay: Antihyperglycemic activity in STZ-induced diabetic Sprague-Dawley rat assessed as decrease in blood glucose at 100 mg/kg, po after 90 mins relative to control
Rattus norvegicus [4] = assay: Antihyperglycemic activity in STZ-induced diabetic Sprague-Dawley rat assessed as decrease in blood glucose at 100 mg/kg, po after 120 mins relative to control
Rattus norvegicus [5] = assay: Antihyperglycemic activity in STZ-induced diabetic Sprague-Dawley rat assessed as decrease in blood glucose at 100 mg/kg, po after 180 mins relative to control
Rattus norvegicus [6] = assay: Antihyperglycemic activity in STZ-induced diabetic Sprague-Dawley rat assessed as decrease in blood glucose at 100 mg/kg, po after 240 mins relative to control
Rattus norvegicus [7] = assay: Antihyperglycemic activity in STZ-induced diabetic Sprague-Dawley rat assessed as decrease in blood glucose at 100 mg/kg, po after 5 hrs relative to control
Rattus norvegicus [8] = assay: Antihyperglycemic activity in STZ-induced diabetic Sprague-Dawley rat assessed as decrease in blood glucose at 100 mg/kg, po after 24 hrs relative to control

| SMILES | Activity (Rattus norvegicus [1]) [%] | Activity (Rattus norvegicus [2]) [%] | Activity (Rattus norvegicus [3]) [%] | Activity (Rattus norvegicus [4]) [%] | Activity (Rattus norvegicus [5]) [%] | Activity (Rattus norvegicus [6]) [%] | Activity (Rattus norvegicus [7]) [%] | Activity (Rattus norvegicus [8]) [%] |
| --- | --- | --- | --- | --- | --- | --- | --- | --- |
| CSc1cc(-c2ccco2)oc(=O)c1C#N | 11.8 | 16.5 | 19.6 | 19.8 | 8.1 | 2.3 | 6.8 | 6.7 |
| Cc1cc(-c2cc(N3CCCC3)c(C#N)c(=O)o2)c(C)o1 | 12.5 | 17.3 | 20.9 | 20.9 | 7.8 | 1.2 | 4.5 | 10.5 |
| Cc1cc(-c2cc(N3CCCCC3)c(C#N)c(=O)o2)c(C)o1 | 8.6 | 9.4 | 6.8 | 8.7 | 0.8 | 1 | 5.2 | 19.7 |
| Cc1cc(-c2cc(N3CCOCC3)c(C#N)c(=O)o2)c(C)o1 | 16.6 | 18.4 | 24 | 29 | 18.5 | 20.7 | 20.3 | 29.7 |
| Cc1cc(-c2cc(N3CCC(C)CC3)c(C#N)c(=O)o2)c(C)o1 | 12.5 | 16.3 | 20.9 | 16.8 | 2.6 | 2.8 | 5.5 | 4.2 |
| CSc1cc(-c2cc(C)oc2C)oc(=O)c1C#N | 12.6 | 16.2 | 21.2 | 16.5 | 2.3 | 2.5 | 5.2 | 4.5 |
| CSc1cc(-c2cc(C)oc2C)oc(=O)c1C(N)=O | 13.2 | 28.8 | 33 | 29.4 | 16.3 | 12.6 | 11.2 | 23.9 |
| CSc1cc(-c2ccco2)oc(=O)c1C(N)=O | 8.5 | 9.6 | 6.3 | 8.9 | 1.2 | 1.3 | 5.52 | 19.3 |
| N#Cc1c(N2CCOCC2)cc(-c2ccco2)oc1=O | 13.1 | 15.9 | 19.8 | 17.4 | 1.8 | 5.2 | 9.8 | 0.5 |
| CN1CCN(c2cc(-c3ccco3)oc(=O)c2C#N)CC1 | 12.5 | 17.5 | 17.3 | 22.8 | 16.8 | 14.6 | 12.8 | 20 |
| N#Cc1c(N2CCN(c3ccccc3)CC2)cc(-c2ccco2)oc1=O | 11.8 | 15.7 | 20.2 | 15.9 | 1.9 | 3.9 | 6.1 | 2.5 |
| N#Cc1c(N2CCCCC2)cc(-c2ccco2)oc1=O | 12.8 | 17.5 | 21.1 | 21.3 | 7.5 | 1.4 | 4.8 | 10.4 |
| CN(C)C(=N)NC(=N)N [METFORMIN] | 15.9 | 18.2 | 24.5 | 29.2 | 18.7 | 21.1 | 20.7 | 30 |
